Source: publication PMC8427973, “Regulation of the HTRA2 Protease Activity by an Inhibitory Antibody-Derived Peptide Ligand and the Influence on HTRA2-Specific Protein Interaction Networks in Retinal Tissues” (Biomedicines, 2021)

Experiments:
[1] = molecular target: T1, recombinant HTRA2 protein (Homo sapiens, UniProt O43464); assay: HTRA2 protease activity assay with fluorescent H2-optimal substrate; type: biochemical; conditions: for Inhibitory effect on HTRA2 after targeted alanine substitution in the CDR binding motif (mutational analysis): protease activity assay, Figure S1; for Increase of the average degradation rate of the optimal substrate H2 with respect to the untreated positive control: 100 nM HTRA2, 10 µM substrate, RT; for Average degradation rate of the optimal substrate H2 by HTRA2 (enzymatic reaction rate per minute): 100 nM recombinant HTRA2, 10 µM H2-optimal substrate, pH 8.0, RT, fluorescence ex 320 nm / em 405 nm, untreated positive control 229 U/min
T1 construct: 6xHis (C); purchased Novoprotein Scientific INC., Summit, NJ, USA
T1 sequence (O43464 134-458): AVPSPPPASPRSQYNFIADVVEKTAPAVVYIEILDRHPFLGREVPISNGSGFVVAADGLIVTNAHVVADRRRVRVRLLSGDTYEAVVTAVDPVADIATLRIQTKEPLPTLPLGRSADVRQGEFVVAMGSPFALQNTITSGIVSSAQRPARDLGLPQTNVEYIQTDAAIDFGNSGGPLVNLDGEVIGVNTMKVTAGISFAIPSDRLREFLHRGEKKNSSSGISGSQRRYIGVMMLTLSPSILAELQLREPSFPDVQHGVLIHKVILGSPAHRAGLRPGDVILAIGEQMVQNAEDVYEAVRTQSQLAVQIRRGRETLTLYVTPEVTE
Protocol: The HTRA2 protease activity assay was performed as described by Martins et al. (2003), but with some slight modifications. The experiment was performed with 100 nM recombinant HTRA2 protein (Novoprotein Scientific INC., Summit, NJ, USA) in a protease assay buffer (50 mM tris(hydroxymethyl)-aminomethane (TRIS), 0.5 mM ethylenediaminetetraacetic acid (EDTA), and 1 mM dithiothreitol (DTT), pH 8.0) containing 10 µM H2-optimal substrate (Innovagen AB, Lund, Sweden). The H2-optimal substrate is commonly used to measure the protease activity of HTRA2 and consists of a structural quencher and a fluorophore unit. The cleavage of the substrate leads to the disruption of the quencher/fluorophore complex and the degradation rate can be measured by fluorescence. The different sample groups were treated with 50 µM PDZ-Opt, 50 µM PDZ-Sub, 50 µM synthetic CDR1 peptide, or 30 µM UCF-101, respectively. The drug compound UCF-101 is an inhibitor of the catalytic domain of HTRA2 and was purchased from Sigma Aldrich (Darmstadt, Germany). The concentrations of the peptide ligands for the HTRA2 protease activity assay were chosen from the previous publication. The concentration of UCF-101 was determined to be optimal from the preliminary experiments. In addition, a positive control containing only 100 nM recombinant HTRA2 and a negative control (only protease assay buffer) were included in this experiment. All of the sample groups were incubated for 1 h at 37 °C to determine the maximum degradation rate of HTRA2. For the analysis of the enzymatic reaction rate of HTRA2, all samples were measured subsequently after the addition of the 10 µM H2-optimal substrate at RT. Fluorescence was monitored on a Spark® 10 M multimode microplate-reader (Tecan Trading AG, Männedorf, Switzerland) with an excitation at 320 nm and a fluorescence emission at 405 nm. The fluorescence background of the substrate was substracted from the fluorescence intensities of the different the sample groups to normalize the data.
To determine the proteolytic activity of HTRA2 we used the fluorescent H2 optimal substrate developed by Martins et al. (2003). The optimal substrate H2 encoded a short specific amino acid sequence, which is preferentially cleaved by HTRA2, and was also modified with a fluorescent dye and quencher. […] Under physiological conditions, the proteolytic activity of HTRA2 is suppressed by the C-terminal PDZ domain, which blocks the access of potential substrates to the catalytic domain by steric hindrance. The binding of short hydrophobic polypeptides to the allosteric PDZ domain can induce specific conformational changes of HTRA2 and are able to regulate its proteolytic activity. Therefore, Martins et al. (2003) specifically designed the peptide ligands PDZ-Opt (GQYYFV) and PDZ-Sub (GGIRRV), which are known to increase the proteolytic activity of HTRA2 in this assay.

[2] = tested on: HTRA2-PDZ domain; parameters: method as in PMID 23457469; conditions: cited from earlier work
[3] = molecular target: Serine protease HTRA2, mitochondrial (recombinant, 6xHis-tag) (UniProt O43464)

## ASGYAFTNYGLSWVR [T(5) to A(5), CDR peptide for the mutational analysis, alanine at position 5]
[1]
  Inhibitory effect on HTRA2 after targeted alanine substitution in the CDR binding motif (mutational analysis): significantly strengthened the inhibitory effect

## GQYYFV [PDZ-Opt, reference compound]
[1]; 50 µM peptide
  Increase of the average degradation rate of the optimal substrate H2 with respect to the untreated positive control: up to 50%
  Average degradation rate of the optimal substrate H2 by HTRA2 (enzymatic reaction rate per minute): 345 U/min

## YVWAGSTLSRTGNFY [scrambled CDR, scrambled CDR peptide analog]
[1]; 50 µM peptide, 1 h at 37 °C, n = 3, Figure 1C
  Maximum degradation rate of the H2 optimal substrate by HTRA2: unable to induce the suppression of the HTRA2 protease activity

## ASGATFTNYGLSWVR [Y(4), CDR peptide for the mutational analysis, alanine at position 4]
[1]
  Inhibitory effect on HTRA2 after targeted alanine substitution in the CDR binding motif (mutational analysis): particular important presence of Y(4) and F(6) for the inhibitory effect on HTRA2

## AGYTGFV
[2]
  Glide score for binding to the HTRA2-PDZ domain: -7.903 kcal/mol

## GGIRRV [PDZ-Sub, a peptide generated by HTRA2 auto-proteolysis, reference compound]
[1]; 50 µM peptide
  Increase of the average degradation rate of the optimal substrate H2 with respect to the untreated positive control: up to 18%
  Average degradation rate of the optimal substrate H2 by HTRA2 (enzymatic reaction rate per minute): 272 U/min

## ASGYTATNYGLSWVR [F(6), CDR peptide for the mutational analysis, alanine at position 6]
[1]
  Inhibitory effect on HTRA2 after targeted alanine substitution in the CDR binding motif (mutational analysis): particular important presence of Y(4) and F(6) for the inhibitory effect on HTRA2

## GGIRRV [PDZ-Sub]
[3]
  average degradation rate of the fluorescent H2 optimal substrate (10 µM) by 100 nM HTRA2 with 50 µM PDZ-Sub; untreated HTRA2 229 U/min (increase up to 18%): 272 U/min

## GQYYFV [PDZ-Opt]
[3]
  average degradation rate of the fluorescent H2 optimal substrate (10 µM) by 100 nM HTRA2 with 50 µM PDZ-Opt; untreated HTRA2 229 U/min (increase up to 50%): 345 U/min
